Experimental data as given in patent US20090215638A1, “ANTIBIOTIC SUSCEPTIBILITY AND VIRULENCE FACTOR DETECTION IN PSEUDOMONAS AERUGINOSA” (priority 2005, published 2009).

Legend:
[1] = tested on: P. aeruginosa clinical isolates; test: Antibiotic susceptibility testing, NEG MIC Type 30 panel on MicroScan WalkAway-96 SI, MICs interpreted according to NCCLS guidelines; assay type: cell-based, Pseudomonas aeruginosa; settings: for 60 MIC: MIC of resistant isolates
Source text: The wild-type reference strain P. aeruginosa PAO1 was obtained from the ATCC (AT47085). The other P. aeruginosa strains were collected from patients at the Robert Bosch Hospital in Stuttgart, Germany. They were recovered from respiratory samples (n=51), swabs (n=5), urine (n=2) and feces (n=2). All isolates were identified with the API 20NE system (bioMerieux, Marcy l'Etoile, France) and the NEG Breakpoint Combo Type 30 panel on the MicroScan WalkAway ®-96 SI system (Dade Behring, Liederbach, Germany). All bacterial strains were either routinely cultured at 37° C. on Mueller-Hinton (MH) agar or grown in Luria Bertani broth (LB).
The antibiotic susceptibility was determined with the NEG MIC Type 30 panel on the MicroScan WalkAway ®-96 SI system. The MICs were interpreted according to the NCCLS guidelines.
The test collective of P. aeruginosa isolates was recovered from three intensive care units (ICU) or other hospital wards as far as an unusual multidrug resistance was observed. […] 4.

[2] = tested on: P. aeruginosa clinical isolates; parameters: species or system Pseudomonas aeruginosa; settings: predicted from mutations and resistance genes found by array in 60 isolates
Procedure: Chromosomal DNA was extracted with the QIAmp DNA Mini Kit, plasmid DNA with the QIAprep Spin Miniprep Kit according to manufacturer's instructions (Qiagen, Hilden, Germany). A set of 4 multiplex PCRs (Tab. 1) was set up to amplify the sequences of interest from the chosen genes. The PCRs were carried out with the Advantage®-GC Genomic PCR Kit (BD Bioscience, San Jose, USA) according to manufacturer's instructions, for fluorescence labeling 5 μl of each 1 mM dNTP was used, for dCTP a 2:3 mixture of Cy3-dCTP and dCTP. The cycle reactions consisted of 30 cycles of 30 s at 95° C., 30 s at 55° C. and 1 min at 72° C. PCR products were purified with the QIAquick PCR Purification Kit (Qiagen, Hilden, Germany) according to the manufacturer's instructions. The quality and sizes of PCR products were checked on a lab-on-a-chip Bioanalyzer 2100 electrophoresis with the DNA 1500 LabChip kit (Agilent, Böblingen, Germany). Sequencing was performed on the ABI PRISM® 310 Genetic Analyzer using the BigDyee® Terminator Cycle Sequencing Kit v1.1 (Applied Biosystems, Foster City, USA). The manufacturer's protocol was followed using the same primers as for the multiplex PCRS. […]
The oligonucleotide arrays were scanned with a arrayWoRx Biochip Reader (Applied Precision, Marlborough, UK). The scanner settings for fluorescence signal acquisition were set to “High Precision” and 0.2 s acquisition time. […]

[3] = Table 3, test collective of 60 clinical isolates
[4] = Table 6, phenotypic resistance rate, 60 clinical isolates
[5] = Table 6, phenotypic resistance, 60 clinical isolates

Row | Molecule | % of resistant isolates out of 60 [1, 3] [%] | Number of resistant isolates out of 60 [1, 3] | 60 MIC ([1]; Table 6) [µg/mL] | % of resistant isolates out of 60 [1, 4] [%] | Number of resistant isolates out of 60 [1, 5] | susceptibility rate ([1]; test collective of isolates) | Susceptibility profile, Isolate 1 ([1]; first of 3 consecutive isolates from the same patient) | Susceptibility profile, Isolate 3 ([1]; last of 3 consecutive isolates from the same patient, within three weeks) | Susceptibility profile, Isolate 2 ([1]; second of 3 consecutive isolates from the same patient, collected one week after the first) | resistance rate ([1]; test collective of isolates) [%] | Cumulative resistance predicttion deduced from array [2] [%]
1 | CC(C)(O/N=C(\C(=O)N[C@@H]1C(=O)N2C(C(=O)[O-])=C(C[n+]3ccccc3)CS[C@H]12)c1csc(N)n1)C(=O)O [Ceftazidim, ceftazidime] | 33 | 20 | >16 | 33 | 20 |  |  |  |  |  | 
2 | C[C@@H](O)[C@H]1C(=O)N2C(C(=O)O)=C(SCCN=CN)C[C@H]12 [Imipenem, imipenem] |  |  |  |  |  | less than 55% |  |  |  |  | 
3 | NC[C@H]1O[C@H](O[C@H]2[C@H](O)[C@@H](O[C@H]3O[C@H](CO)[C@@H](O)[C@H](N)[C@H]3O)[C@H](N)C[C@@H]2N)[C@H](N)C[C@@H]1O [Tobramycin, tobramycin] |  |  |  |  |  |  | susceptible | resistance | susceptible |  | 
4 | colistin | 0 | 0 |  | 0 | 0 |  |  |  |  | 0 | 0
5 | gentamicin | 37 | 22 | >8 | 37 | 22 |  |  |  |  |  | 45
6 | piperacillin/tazobactam | 33 | 20 | >64 | 33 | 20 |  |  |  |  |  | 
